From patent US8343475B2, “Small cationic antimicrobial peptides” (priority 2006, dated 2013)
Residues, ends and D or L forms follow the SMILES beside them.

Columns and labels:
S. aureus = experiment: Mouse model of aggressive bacterial infection (intraperitoneal); type: in vivo; conditions: 1.6×10^10 CFU S. aureus IP; 8 mg/kg peptide IP four hours post infection
Procedure: FIG. 10. Ability of new antimicrobial peptides HHC-10 and HHC-36 to protect mice against Staph aureus infections. Bacterial loads in the peritoneal lavage from individual mice after 24 hours of infection are shown (solid circles). Dead animals were assigned the highest colony forming unit (CFU) count obtained in the experiment. The solid line represents the arithmetic mean for each group.
(§1) FIG. 18. […] Mice were treated with 1.6×10^10 CFU of S. aureus intraperitoneally. Four hours post infection they received a dose of 8 mg/kg peptide IP. The infection was allowed to progress for 4 or 24 hours after which mice were euthanaised and plate counts of staphylococci surviving in the peritoneum were determined. Bacterial loads in the peritoneal lavage from individual mice after 24 hours of infection are shown (solid circles). The solid line represents the arithmetic mean for each group.
as §1, with “19.” for “18.”
To further confirm this, a mouse model of aggressive bacterial infection, widely used to assess antibiotic efficacy, was utilized. Mice were treated with 1.6×10^10 CFU IP. Four hours post infection they received a dose of 4 mg/kg peptide IP. The infection was allowed to progress for 20 more hours, for a total infection time of 24 hours.
These immunomodulatory activities led to protection against infections by S. aureus. Briefly a mouse model of aggressive bacterial infection, widely used to assess antibiotic efficacy, was utilized. […] The infection was allowed to progress for 4 or 24 hours after which mice were euthanaised and plate counts of staphylococci surviving in the peritoneum were determined.

[1] = tested on: IL8 release by human PBMC; experiment: Chemokine induction in PBMC (capture ELISA); type: cell-based; conditions: 20 or 100 μg/ml peptide, 24 hours (FIG. 14)
Procedure: FIG. 14. Induction of IL8 release by 7.5×10^5 human PBMC in response to treatment with 20 or 100 μg/ml of different peptides for 24 hours.
(§2) Venous blood (20 ml) from healthy volunteers was collected in Vacutainer® collection tubes containing sodium heparin as an anticoagulant (Becton Dickinson, Mississauga, ON) in accordance with UBC ethical approval and guidelines. Blood was diluted 1:1 with complete RPMI 1640 medium and separated by centrifugation over a Ficoll-Paque® Plus (Amersham Biosciences, Piscataway, N.J., USA) density gradient. White blood cells were isolated from the buffy coat, washed twice in RPMI 1640 complete medium, and the number of peripheral blood mononuclear cells (PBMC) was determined by trypan blue exclusion. PBMC (5×10^5) were seeded into 12-well tissue culture dishes (Falcon; Becton Dickinson) at 0.75 to 1×10^6 cells/ml at 37° C. in 5% CO2. The above conditions were chosen to mimic conditions for circulating blood monocytes entering tissues at the site of infection via extravasation.
(§3) Following incubation of the cells under various treatment regimens, the tissue culture supernatants were centrifuged at 1000×g for 5 min, then at 10,000×g for 2 min to obtain cell-free samples. Supernatants were aliquoted and then stored at −20° C. prior to assay for various chemokines by capture ELISA (eBioscience and BioSource International Inc., CA, USA respectively)

[2] = tested on: MCP-1 release by human PBMC; experiment: Chemokine induction in PBMC (capture ELISA); type: cell-based; conditions: for Chemokine induction MCP-1: background (204) subtracted
Method in brief: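 Heparinized blood from healthy volunteers; Ficoll-isolated human PBMC (7.5×10^5) treated with peptides at 20 or 100 μg/ml for 24 hours at 37° C, 5% CO2. Cell-free supernatants assayed for MCP-1 by capture ELISA.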

[3] = tested on: CXCL1 (Gro-α) release by human PBMC; experiment: Chemokine induction in PBMC (capture ELISA); type: cell-based; conditions: background (196) subtracted
Method in brief: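 Human PBMC from healthy donors' heparinised blood (Ficoll), 7.5×10^5 cells treated with 20 or 100 μg/ml peptide for 24 h at 37° C, 5% CO2. Cell-free supernatants assayed for CXCL1 by capture ELISA.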

human PBMC = experiment: Adjuvant properties: cytokine/chemokine induction by peptides alone and with CpG oligonucleotides and polyphosphazene P6; type: cell-based; conditions: peptide alone 20 ug/mL, background subtracted
Procedure: as §2, §3
(§4) It is well accepted that vaccine immunization is best achieved by co-administration of an adjuvant. The precise mechanism by which these adjuvants work has eluded immunologists but appears to work in part by upregulating elements of innate immunity that smooth the transition to adaptive (antigen-specific) immunity (Bendelac A and R. Medzhitov. 2002. Adjuvants of immunity: Harnessing innate immunity to promote adaptive immunity J. Exp. Med. 195:F19-F23). Within this concept there are several possible avenues by which adjuvants might work including the attraction of immune cells into the site at which a particular antigen is injected, through e.g., upregulation of chemokines, the appropriate activation of cells when they reach that site, which can be caused by local cell or tissue damage releasing endogenous adjuvants or through specific cell activation by the adjuvants, and the compartmentalization of immune responses to the site of immunization (the so-called “depot” effect). […] Therefore we studies the ability of our small host defence peptides to upregulate adjuvant responses in both human PBMC and cord blood mononuclear cells (CBMC) (representing the responses of blood cells from neonates), both alone (Table 10 and 11) and in combination with other proposed adjuvant agents that might work through other mechanisms such as CpG oligodeoxy ribonucleotides (TLR9 agionists that activate cells through interaction with TLR9 and fit into 3 different classes A=molecule 2336, B=10103 and C=2395), and polyphosphazene P6 (which induces a depot effect).

[4] = tested on: cord blood mononuclear cells (CBMC); experiment: as above; type: cell-based, human; conditions: peptide alone 20 ug/mL, background subtracted
Text: as §4

With `CC[C@H](C)[C@H](N)C(=O)N[C@@H](Cc1c[nH]c2ccccc12)C(=O)N[C@H](C(=O)N[C@H](C(=O)N[C@@H](Cc1c[nH]c2ccccc12)C(=O)N[C@@H](CCCNC(=N)N)C(=O)N[C@@H](CCCNC(=N)N)C(N)=O)[C@@H](C)CC)C(C)C` [HH18, IWVIWRR-NH2] (H-IWVIWRR-NH2; N-terminus assumed) the “protection of mice from S. aureus infections (bacterial loads in peritoneal lavage)” value (S. aureus) was “Protection of mice from S. aureus infections”, the “induction of IL8” value [1] was “strongest abilities to induce this chemokine” and the “Chemokine induction MCP-1” value ([2]; 20 μg/ml peptide) was 1111 pg/mL. For the same molecule, the “Chemokine induction MCP-1” value ([2]; 100 μg/ml peptide) was 9608 pg/mL, the “induction of MCP1” value ([2]; 20 or 100 μg/ml peptide, 24 hours (FIG. 15)) was “induced” and the “Chemokine induction Gro-α” value ([3]; 20 μg/ml peptide) was 865 pg/mL. The “Chemokine induction Gro-α” value ([3]; 100 μg/ml peptide) was 2964 pg/mL, the “Cytokines induced: Gro-α” value (human PBMC) was 143 pg/mL and the “Cytokines induced: IL-6” value (human PBMC) was 180 pg/mL. For the same molecule, the “Cytokines induced: IL-8” value (human PBMC) was 2558 pg/mL, the “Cytokines induced: MCP-1” value (human PBMC) was 64 pg/mL and the “Cytokines induced: MCP-3” value (human PBMC) was 3 pg/mL. For the same molecule, the “Cytokines induced: TNF-α” value (human PBMC) was 56 pg/mL, the “Cytokines induced: Gro-α” value [4] was 55 pg/mL and the “Cytokines induced: IL-6” value [4] was 7 pg/mL. For the same molecule, the “Cytokines induced: IL-8” value [4] was 372 pg/mL, the “Cytokines induced: MCP-1” value [4] was 54 pg/mL and the “Cytokines induced: MCP-3” value [4] was -24 pg/mL. The “Cytokines induced: TNF-α” value [4] was -4 pg/mL.
